The NIST ThermoML archive (doi:10.1016/j.jct.2012.03.013)

Tests used:
[1] = Liquid; for speed of sound: Pulse-echo method
[2] = refractive index (Na D-line) (dimensionless); settings: 298.15 K; 101.33 kPa; Liquid; Standard Abbe refractometry
[3] = molar heat capacity at constant pressure; settings: Liquid, Acoustic Method

OCCCCO [1,4-butanediol]
[1]
Settings	mass density [kg/m3]
293.15 K, 100 kPa, Acoustic method	1015.74
293.15 K, 101.33 kPa, Vibrating tube method	1015.74
298.15 K, 100 kPa, Acoustic method	1012.78
298.15 K, 101.33 kPa, Vibrating tube method	1012.78
298.15 K, 10000 kPa, Acoustic method	1016.99
298.15 K, 20000 kPa, Acoustic method	1021.1
298.15 K, 30000 kPa, Acoustic method	1025.06
298.15 K, 40000 kPa, Acoustic method	1028.89
303.14 K, 101.33 kPa, Vibrating tube method	1009.78
303.15 K, 100 kPa, Acoustic method	1009.77
303.15 K, 10000 kPa, Acoustic method	1014.06
303.15 K, 20000 kPa, Acoustic method	1018.23
303.15 K, 30000 kPa, Acoustic method	1022.25
303.15 K, 40000 kPa, Acoustic method	1026.13
303.15 K, 50000 kPa, Acoustic method	1029.88
303.15 K, 60000 kPa, Acoustic method	1033.51
303.15 K, 70000 kPa, Acoustic method	1037.04
303.15 K, 80000 kPa, Acoustic method	1040.47
303.15 K, 90000 kPa, Acoustic method	1043.8
308.15 K, 100 kPa, Acoustic method	1006.76
308.15 K, 101.33 kPa, Vibrating tube method	1006.76
308.15 K, 10000 kPa, Acoustic method	1011.12
308.15 K, 20000 kPa, Acoustic method	1015.35
308.15 K, 30000 kPa, Acoustic method	1019.42
308.15 K, 40000 kPa, Acoustic method	1023.35
308.15 K, 50000 kPa, Acoustic method	1027.15
308.15 K, 60000 kPa, Acoustic method	1030.83
308.15 K, 70000 kPa, Acoustic method	1034.41
308.15 K, 80000 kPa, Acoustic method	1037.87
308.15 K, 90000 kPa, Acoustic method	1041.25
308.15 K, 100000 kPa, Acoustic method	1044.53
313.14 K, 101.33 kPa, Vibrating tube method	1003.72
313.15 K, 100 kPa, Acoustic method	1003.73
313.15 K, 10000 kPa, Acoustic method	1008.15
313.15 K, 20000 kPa, Acoustic method	1012.44
313.15 K, 30000 kPa, Acoustic method	1016.57
313.15 K, 40000 kPa, Acoustic method	1020.56
313.15 K, 50000 kPa, Acoustic method	1024.41
313.15 K, 60000 kPa, Acoustic method	1028.14
313.15 K, 70000 kPa, Acoustic method	1031.76
313.15 K, 80000 kPa, Acoustic method	1035.27
313.15 K, 90000 kPa, Acoustic method	1038.68
313.15 K, 100000 kPa, Acoustic method	1042
318.15 K, 100 kPa, Acoustic method	1000.67
318.15 K, 101.33 kPa, Vibrating tube method	1000.67
318.15 K, 10000 kPa, Acoustic method	1005.17
318.15 K, 20000 kPa, Acoustic method	1009.52
318.15 K, 30000 kPa, Acoustic method	1013.71
318.15 K, 40000 kPa, Acoustic method	1017.75
318.15 K, 50000 kPa, Acoustic method	1021.65
318.15 K, 60000 kPa, Acoustic method	1025.43
318.15 K, 70000 kPa, Acoustic method	1029.09
318.15 K, 80000 kPa, Acoustic method	1032.64
318.15 K, 90000 kPa, Acoustic method	1036.09
318.15 K, 100000 kPa, Acoustic method	1039.45
323.15 K, 101.33 kPa, Vibrating tube method	997.61
328.15 K, 101.33 kPa, Vibrating tube method	994.53
333.15 K, 101.33 kPa, Vibrating tube method	991.44
338.15 K, 101.33 kPa, Vibrating tube method	988.31
343.14 K, 101.33 kPa, Vibrating tube method	985.17
348.15 K, 101.33 kPa, Vibrating tube method	982.01
353.15 K, 101.33 kPa, Vibrating tube method	978.82

Settings	molar heat capacity at constant pressure [J/K/mol]	speed of sound [m/s]
[1], 298.07 K, 15200 kPa	–	1649.2
[1], 298.07 K, 30390 kPa	–	1693.3
[1], 298.08 K, 45590 kPa	–	1735.4
[1], 298.11 K, 100 kPa	–	1602.1
[1], 298.15 K, 101.33 kPa	–	1601.8
[1], 303.15 K, 101.33 kPa	–	1589.9
[1], 303.15 K, 60790 kPa	–	1763.6
[1], 303.15 K, 70920 kPa	–	1789.3
[1], 303.15 K, 75990 kPa	–	1801.9
[1], 303.15 K, 91180 kPa	–	1837.8
[1], 303.16 K, 30390 kPa	–	1682.4
[1], 303.16 K, 45590 kPa	–	1724.1
[1], 303.16 K, 50660 kPa	–	1738
[1], 303.17 K, 100 kPa	–	1590.2
[1], 303.17 K, 15200 kPa	–	1637.6
[1], 308.14 K, 15200 kPa	–	1626.6
[1], 308.14 K, 30390 kPa	–	1671.6
[1], 308.14 K, 45590 kPa	–	1713.7
[1], 308.14 K, 75990 kPa	–	1792
[1], 308.14 K, 91180 kPa	–	1828.2
[1], 308.14 K, 101320 kPa	–	1851.7
[1], 308.15 K, 100 kPa	–	1578.4
[1], 308.15 K, 101.33 kPa	–	1578.5
[1], 308.15 K, 60790 kPa	–	1753.3
[1], 313.09 K, 15200 kPa	–	1614.6
[1], 313.09 K, 30390 kPa	–	1660.5
[1], 313.1 K, 45590 kPa	–	1703
[1], 313.1 K, 60790 kPa	–	1743.5
[1], 313.1 K, 75990 kPa	–	1782
[1], 313.1 K, 91180 kPa	–	1819
[1], 313.1 K, 101320 kPa	–	1842.1
[1], 313.12 K, 100 kPa	–	1567
[1], 313.15 K, 101.33 kPa	–	1566.7
[1], 318.15 K, 101.33 kPa	–	1555.2
[1], 318.17 K, 30390 kPa	–	1649.8
[1], 318.17 K, 45590 kPa	–	1692.6
[1], 318.17 K, 60790 kPa	–	1733.4
[1], 318.17 K, 75990 kPa	–	1772
[1], 318.18 K, 15200 kPa	–	1603.3
[1], 318.18 K, 91180 kPa	–	1809.4
[1], 318.18 K, 101320 kPa	–	1832.7
[1], 318.2 K, 100 kPa	–	1555.3
[3], 298.15 K, 10000 kPa	202.7	–
[3], 298.15 K, 20000 kPa	202.4	–
[3], 298.15 K, 30000 kPa	202	–
[3], 298.15 K, 40000 kPa	201.7	–
[3], 303.15 K, 10000 kPa	205.5	–
[3], 303.15 K, 20000 kPa	205.1	–
[3], 303.15 K, 30000 kPa	204.7	–
[3], 303.15 K, 40000 kPa	204.4	–
[3], 303.15 K, 50000 kPa	204.1	–
[3], 303.15 K, 60000 kPa	203.8	–
[3], 303.15 K, 70000 kPa	203.5	–
[3], 303.15 K, 80000 kPa	203.2	–
[3], 303.15 K, 90000 kPa	202.9	–
[3], 308.15 K, 10000 kPa	208.3	–
[3], 308.15 K, 20000 kPa	207.9	–
[3], 308.15 K, 30000 kPa	207.6	–
[3], 308.15 K, 40000 kPa	207.2	–
[3], 308.15 K, 50000 kPa	206.9	–
[3], 308.15 K, 60000 kPa	206.6	–
[3], 308.15 K, 70000 kPa	206.3	–
[3], 308.15 K, 80000 kPa	206	–
[3], 308.15 K, 90000 kPa	205.7	–
[3], 308.15 K, 100000 kPa	205.4	–
[3], 313.15 K, 10000 kPa	211.2	–
[3], 313.15 K, 20000 kPa	210.8	–
[3], 313.15 K, 30000 kPa	210.4	–
[3], 313.15 K, 40000 kPa	210.1	–
[3], 313.15 K, 50000 kPa	209.7	–
[3], 313.15 K, 60000 kPa	209.4	–
[3], 313.15 K, 70000 kPa	209.1	–
[3], 313.15 K, 80000 kPa	208.8	–
[3], 313.15 K, 90000 kPa	208.5	–
[3], 313.15 K, 100000 kPa	208.2	–
[3], 318.15 K, 10000 kPa	214.2	–
[3], 318.15 K, 20000 kPa	213.8	–
[3], 318.15 K, 30000 kPa	213.4	–
[3], 318.15 K, 40000 kPa	213	–
[3], 318.15 K, 50000 kPa	212.7	–
[3], 318.15 K, 60000 kPa	212.3	–
[3], 318.15 K, 70000 kPa	212	–
[3], 318.15 K, 80000 kPa	211.7	–
[3], 318.15 K, 90000 kPa	211.4	–
[3], 318.15 K, 100000 kPa	211.1	–

Settings	refractive index
[2]	1.4447
